From patent US20240132431A1, “METHOD FOR ALKYLATING ACIDIC FUNCTIONAL GROUP” (Chugai Seiyaku Kabushiki Kaisha, priority 2021, published 2024)

Target: T1, Bcl-2 protein (Recombinant Human Bcl-2 Protein) (Homo sapiens, UniProt P10415)
T1 construct: purchased Novus NBP2-34889
Assay: Binding evaluation of mixture library compounds to Bcl-2 using AS-MS (affinity selection mass spectrometry)
Details: AS-MS, mixture library, Bcl-2, ASMS Ratio(%)=(A−C)/B×100; for ASMS ratio (%) n = 1: replicate n = 1; for ASMS ratio (%) n = 2: replicate n = 2
Outline: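 Bcl-2 binding is scored from LC/MS signal retained with protein through gel-filtration spin columns, normalised to unfiltered and protein-free controls. Incubation: 20 μM protein, […] per compound, 1 h, 23° C.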

T1 sequence (P10415 whole entry): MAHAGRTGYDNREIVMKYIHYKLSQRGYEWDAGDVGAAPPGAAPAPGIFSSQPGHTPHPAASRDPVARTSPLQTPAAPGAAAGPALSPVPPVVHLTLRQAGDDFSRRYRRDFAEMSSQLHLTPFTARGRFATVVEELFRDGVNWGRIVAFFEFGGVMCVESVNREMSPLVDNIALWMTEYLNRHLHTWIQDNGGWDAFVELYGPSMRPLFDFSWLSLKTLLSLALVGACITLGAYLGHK

| Compound | ASMS ratio (%) n = 1 [%] | ASMS ratio (%) n = 2 [%] |
| --- | --- | --- |
| CCOc1cncc(-c2ccc(CN3CCN(c4ccc(C(=O)NS(=O)(=O)c5ccc(NCCSc6ccccc6)c([N+](=O)[O-])c5)cc4)CC3)c(CC)c2)c1 [B2Q050-01, 4-[4-[[4-(5-Ethoxypyridin-3-yl)-2-ethylphenyl]methyl]piperazin-1-yl]-N-[3-nitro-4-(2-phenylsulfanylethylamino)phenyl]sulfonylbenzamide] | 0.0 | 0.0 |
| CCOc1cccc(-c2ccc(CN3CCN(c4ccc(C(=O)NS(=O)(=O)c5ccc(NCCSc6ccccc6)c([N+](=O)[O-])c5)cc4)CC3)cc2F)c1 [B2Q051-01, 4-[4-[[4-(3-Ethoxyphenyl)-3-fluorophenyl]methyl]piperazin-1-yl]-N-[3-nitro-4-(2-phenylsulfanylethylamino)phenyl]sulfonylbenzamide] | 22.6 | 2.1 |
| CCOc1cncc(-c2ccc(CN3CCN(c4ccc(C(=O)NS(=O)(=O)c5ccc(NCCSc6ccccc6)c([N+](=O)[O-])c5)cc4)CC3)cc2F)c1 [B2Q052-01, 4-[4-[[4-(5-Ethoxypyridin-3-yl)-3-fluorophenyl]methyl]piperazin-1-yl]-N-[3-nitro-4-(2-phenylsulfanylethylamino)phenyl]sulfonylbenzamide] | 22.8 | 13.9 |
| CCOc1cccc(-c2cc(CN3CCN(c4ccc(C(=O)NS(=O)(=O)c5ccc(NCCSc6ccccc6)c([N+](=O)[O-])c5)cc4)CC3)cc(OCC)c2)c1 [B2Q055-01, 4-[4-[[3-Ethoxy-5-(3-ethoxyphenyl)phenyl]methyl]piperazin-1-yl]-N-[3-nitro-4-(2-phenylsulfanylethylamino)phenyl]sulfonylbenzamide] | 9.0 | −8.3 |
| CCOc1cncc(-c2cc(CN3CCN(c4ccc(C(=O)NS(=O)(=O)c5ccc(NCCSc6ccccc6)c([N+](=O)[O-])c5)cc4)CC3)cc(OCC)c2)c1 [B2Q056-01, 4-[4-[[3-Ethoxy-5-(5-ethoxypyridin-3-yl)phenyl]methyl]piperazin-1-yl]-N-[3-nitro-4-(2-phenylsulfanylethylamino)phenyl]sulfonylbenzamide] | 7.3 | 2.8 |
| CCOc1cccc(-c2cc(CN3CCN(c4ccc(C(=O)NS(=O)(=O)c5ccc(NCCSc6ccccc6)c([N+](=O)[O-])c5)cc4)CC3)cc(OC(C)C)c2)c1 [B2Q057-01, 4-[4-[[3-(3-Ethoxyphenyl)-5-propan-2-yloxyphenyl]methyl]piperazin-1-yl]-N-[3-nitro-4-(2-phenylsulfanylethylamino)phenyl]sulfonylbenzamide] | 17.5 | 4.4 |
| CCOc1cncc(-c2cc(CN3CCN(c4ccc(C(=O)NS(=O)(=O)c5ccc(NCCSc6ccccc6)c([N+](=O)[O-])c5)cc4)CC3)cc(OC(C)C)c2)c1 [B2Q058-01, 4-[4-[[3-(5-Ethoxypyridin-3-yl)-5-propan-2-yloxyphenyl]methyl]piperazin-1-yl]-N-[3-nitro-4-(2-phenylsulfanylethylamino)phenyl]sulfonylbenzamide] | 3.7 | 3.7 |
| CCOc1cccc(-c2cc(OC)c(CN3CCN(c4ccc(C(=O)NS(=O)(=O)c5ccc(NCCSc6ccccc6)c([N+](=O)[O-])c5)cc4)CC3)c(OC)c2)c1 [B2Q059-01, 4-[4-[[4-(3-Ethoxyphenyl)-2,6-dimethoxyphenyl]methyl]piperazin-1-yl]-N-[3-nitro-4-(2-phenylsulfanylethylamino)phenyl]sulfonylbenzamide] | 9.8 | 7.0 |
| CCOc1cncc(-c2cc(OC)c(CN3CCN(c4ccc(C(=O)NS(=O)(=O)c5ccc(NCCSc6ccccc6)c([N+](=O)[O-])c5)cc4)CC3)c(OC)c2)c1 [B2Q060-01, 4-[4-[[4-(5-Ethoxypyridin-3-yl)-2,6-dimethoxyphenyl]methyl]piperazin-1-yl]-N-[3-nitro-4-(2-phenylsulfanylethylamino)phenyl]sulfonylbenzamide] | 0.0 | 0.0 |
| CCOc1cccc(-c2cc(CN3CCN(c4ccc(C(=O)NS(=O)(=O)c5ccc(NCCSc6ccccc6)c([N+](=O)[O-])c5)cc4)CC3)cc(C(F)(F)F)c2)c1 [B2Q061-01, 4-[4-[[3-(3-Ethoxyphenyl)-5-(trifluoromethyl)phenyl]methyl]piperazin-1-yl]-N-[3-nitro-4-(2-phenylsulfanylethylamino)phenyl]sulfonylbenzamide] | 15.6 | −17.9 |

The next lines start with the values.

| ASMS ratio (%) n = 1 [%] | ASMS ratio (%) n = 2 [%] | Compound |
| --- | --- | --- |
| 9.4 | −3.3 | CCOc1cncc(-c2cc(CN3CCN(c4ccc(C(=O)NS(=O)(=O)c5ccc(NCCSc6ccccc6)c([N+](=O)[O-])c5)cc4)CC3)cc(C(F)(F)F)c2)c1 [B2Q062-01, 4-[4-[[3-(5-Ethoxypyridin-3-yl)-5-(trifluoromethyl)phenyl]methyl]piperazin-1-yl]-N-[3-nitro-4-(2-phenylsulfanylethylamino)phenyl]sulfonylbenzamide] |
| 13.3 | −25.5 | CCOc1cccc(-c2cc(CN3CCN(c4ccc(C(=O)NS(=O)(=O)c5ccc(NCCSc6ccccc6)c([N+](=O)[O-])c5)cc4)CC3)cc(OC(F)(F)F)c2)c1 [B2Q063-01, 4-[4-[[3-(3-Ethoxyphenyl)-5-(trifluoromethoxy)phenyl]methyl]piperazin-1-yl]-N-[3-nitro-4-(2-phenylsulfanylethylamino)phenyl]sulfonylbenzamide] |
| 8.6 | −1.6 | CCOc1cncc(-c2cc(CN3CCN(c4ccc(C(=O)NS(=O)(=O)c5ccc(NCCSc6ccccc6)c([N+](=O)[O-])c5)cc4)CC3)cc(OC(F)(F)F)c2)c1 [B2Q064-01] |
| 30.6 | −1.6 | CCOc1cccc(-c2ccc(CN3CCN(c4ccc(C(=O)NS(=O)(=O)c5ccc(NCCSc6ccccc6)c([N+](=O)[O-])c5)cc4)CC3)c3ccccc23)c1 [B2Q065-01] |
| 8.8 | 11.0 | CCOc1cccc(C#Cc2ccccc2CN2CCN(c3ccc(C(=O)NS(=O)(=O)c4ccc(NCCSc5ccccc5)c([N+](=O)[O-])c4)cc3)CC2)c1 [B2Q069-01] |
| 14.3 | −9.0 | CCOc1cncc(C#Cc2ccccc2CN2CCN(c3ccc(C(=O)NS(=O)(=O)c4ccc(NCCSc5ccccc5)c([N+](=O)[O-])c4)cc3)CC2)c1 [B2Q070-01, 4-[4-[[2-[2-(5-Ethoxypyridin-3-yl)ethynyl]phenyl]methyl]piperazin-1-yl]-N-[3-nitro-4-(2-phenylsulfanylethylamino)phenyl]sulfonylbenzamide] |
| 25.0 | 11.2 | CCOc1cccc(-c2ccccc2CN2CCN(c3ccc(C(=O)NS(=O)(=O)c4ccc(NCCSc5ccccc5)c([N+](=O)[O-])c4)nn3)CC2)c1 [B2Q071-01, 6-[4-[[2-(3-Ethoxyphenyl)phenyl]methyl]piperazin-1-yl]-N-[3-nitro-4-(2-phenylsulfanylethylamino)phenyl]sulfonylpyridazine-3-carboxamide] |
| 10.2 | 11.4 | CCOc1cncc(-c2ccccc2CN2CCN(c3ccc(C(=O)NS(=O)(=O)c4ccc(NCCSc5ccccc5)c([N+](=O)[O-])c4)nn3)CC2)c1 [B2Q072-01, 6-[4-[[2-(5-Ethoxypyridin-3-yl)phenyl]methyl]piperazin-1-yl]-N-[3-nitro-4-(2-phenylsulfanylethylamino)phenyl]sulfonylpyridazine-3-carboxamide] |
| 0.0 | 0.0 | CCOc1cccc(-c2ccc(CN3CCN(c4ccc(C(=O)NS(=O)(=O)c5ccc(NCCSc6ccccc6)c([N+](=O)[O-])c5)nn4)CC3)cc2C)c1 [B2Q073-01] |
| 18.8 | 15.4 | CCOc1cncc(-c2ccc(CN3CCN(c4ccc(C(=O)NS(=O)(=O)c5ccc(NCCSc6ccccc6)c([N+](=O)[O-])c5)nn4)CC3)cc2C)c1 [B2Q074-01] |
| 0.0 | 0.0 | CCOc1cccc(-c2ccc(CN3CCN(c4ccc(C(=O)NS(=O)(=O)c5ccc(NCCSc6ccccc6)c([N+](=O)[O-])c5)nn4)CC3)c(CC)c2)c1 [B2Q075-01, 6-[4-[[4-(3-Ethoxyphenyl)-2-ethylphenyl]methyl]piperazin-1-yl]-N-[3-nitro-4-(2-phenylsulfanylethylamino)phenyl]sulfonylpyridazine-3-carboxamide] |
| 0.0 |  | CCOc1cncc(-c2ccc(CN3CCN(c4ccc(C(=O)NS(=O)(=O)c5ccc(NCCSc6ccccc6)c([N+](=O)[O-])c5)nn4)CC3)c(CC)c2)c1 [B2Q076-01, 6-[4-[[4-(5-Ethoxypyridin-3-yl)-2-ethylphenyl]methyl]piperazin-1-yl]-N-[3-nitro-4-(2-phenylsulfanylethylamino)phenyl]sulfonylpyridazine-3-carboxamide] |
| 14.7 | 17.2 | CCOc1cccc(-c2ccc(CN3CCN(c4ccc(C(=O)NS(=O)(=O)c5ccc(NCCSc6ccccc6)c([N+](=O)[O-])c5)nn4)CC3)cc2F)c1 [B2Q077-01, 6-[4-[[4-(3-Ethoxyphenyl)-3-fluorophenyl]methyl]piperazin-1-yl]-N-[3-nitro-4-(2-phenylsulfanylethylamino)phenyl]sulfonylpyridazine-3-carboxamide] |
| 15.6 | 12.1 | CCOc1cncc(-c2ccc(CN3CCN(c4ccc(C(=O)NS(=O)(=O)c5ccc(NCCSc6ccccc6)c([N+](=O)[O-])c5)nn4)CC3)cc2F)c1 [B2Q078-01] |
